This note sets out measurements from patent US20230364044A1, “Methods of Treating or Preventing Acute Respiratory Distress Syndrome” (YALE UNIVERSITY, priority 2018, published 2023).

Experiment [1] relates to mouse lungs. The experiment is described as follows: Immunoblot of lung lysates from mice exposed to hyperoxia. The experiment is classed as in vivo. How it is done: FIG. 3 illustrates the finding that T3 pretreatment increases mitochondrial biogenesis/fusion/mitophagy and decreases ER stress & apoptosis. WT mice were nebulized with T3 (40 μg/kg) for 1 day or 3 days or PTU (100 μg/kg) for 3 days prior to 72 h continuous hyperoxia exposure. Lysates were isolated and immunoblotted against antibodies as listed. ([…] was used as protein loading control.
FIG. 5 illustrates the finding that T3 pretreatment increased Mito anti-ROS potential, biogenesis and mitophagy via PINK 1. WT and PINK1-KO mice were nebulized with T3 (40 μg/kg) for 3 days prior to 72 h continuous hyperoxia exposure. Lysates were isolated and immunoblotted against antibodies as listed. β-Actin was used as protein loading control.
FIG. 7 illustrates the finding that GC-1 pretreatment decreased hyperoxia-induced Mito dysfunction, ER stress and apoptosis. WT mice were orally gavaged with GC-1 (40 μm/kg) and exposed to RA or to hyperoxia for 72 h (H3). A time course of recovery after 72 h hyperoxia is shown (R1-3, 1, 2 3 and 6 days post-hyperoxia). Lysates from mouse lungs were immunoblotted against the listed antibodies (Abs).
FIG. 8 illustrates the finding that GC-1 pretreatment increases Tie2 activation and decreases Ang2. WT mice were orally gavaged with GC-1 (40 μm/kg) and exposed to RA or to hyperoxia for 72 h (H3). A time course of recovery after 72 h hyperoxia is shown (R1-3, 1, 2 3 and 6 days post-hyperoxia). Lysates from mouse lungs were immunoblotted against the listed antibodies.
For orientation: In western blotting, separated proteins are transferred to a membrane and probed.

Experiment [2] has as its system WT mice (hyperoxia-induced lung injury). The experiment is described as follows: Hyperoxia-induced lung injury in mice, BAL readouts (total cells, protein, LDH, Amplex Red oxidants, IL-1β, IL-6). The experiment is classed as in vivo. How it is done:
FIG. 1 illustrates an exemplary T3 administration regime in mice. WT mice were nebulized with triiodothyronine (T3, 40 μg/kg) for 1 day or 3 days or propylthiouracil (PTU, 100 μg/kg) for 3 days prior to 72 h continuous hyperoxia exposure.
FIGS. 2A-2F illustrate the finding that T3 attenuates hyperoxia-induced lung injury, inflammation, and oxidants in WT mice. WT mice were nebulized with T3 (40 μg/kg) for 1 day or 3 days, or PTU (100 μg/kg) for 3 days prior to 72 h continuous hyperoxia exposure. Control mice were exposed to room air (RA). […] IL-1β (FIG. 2E) and IL-6 (FIG. 2F) were detected by ELISA in BALF. The values are expressed as mean±SD and analyzed by Mann-Whitney test n=6 for each group). *p<0.05, vs RA; **p<0.05, vs hyperoxia without pretreatment.
WT, PINK1−/−, and Parkin−/− mice were nebulized with T3 (40 μg/kg) for 3 days or no pretreatment prior to 72 h continuous hyperoxia exposure. […] IL-1β (FIG. 4E) and IL-6 (FIG. 4F) were detected by ELISA in BALF. The values are expressed as mean±SD and analyzed by Mann-Whitney test n=6 for each group). *p<0.05, vs WT no T3 RA; **p<0.05, vs WT no T3 hyperoxia; #p<0.05, vs corresponding RA; ##p<0.05, vs corresponding no T3 hyperoxia.
FIGS. 6A-6F illustrate the finding that GC-1 pretreatment prevents hyperoxia-induced lung injury and accelerates recovery. WT mice were orally gavaged with GC-1 (40 μm/kg) and then exposed to RA or to continuous hyperoxia for 72 h (H3). Recovery phase was initiated after 72 h hyperoxia (R1-3, 1, 2 3 and 6 days post-hyperoxia). Cells recovered from BAL were counted as BAL total cell counts (FIG. 6A). […] IL-6 (FIG. 6E) and IL-1β (FIG. 6F) was detected by ELISA in BALF. The values are expressed as mean±SD and analyzed by Mann-Whitney test (n=4 for each group). *p<0.05 versus no GC-1 RA; **p<0.05 versus no GC-1 H3; #p<0.05 versus corresponding no GC-1.

Where [3] appears, read: WT mice orally gavaged with GC-1 (40 μm/kg), 72 h hyperoxia and recovery, FIG. 8.
[4] abbreviates: WT mice nebulized with T3 (40 μg/kg) for 1 day or 3 days prior to 72 h hyperoxia, FIG. 3.

As for `Cc1cc(OCC(=O)O)cc(C)c1Cc1ccc(O)c(C(C)C)c1` [GC-1, 2-(4-(4-hydroxy-3-isopropylbenzyl)-3,5-dimethylphenoxy)acetic acid], the “hyperoxia-induced Mito dysfunction, ER stress and apoptosis” value in experiment [1] (WT mice orally gavaged with GC-1 (40 μm/kg), 72 h hyperoxia and recovery, FIG. 7) is “decreased”. Besides, in experiment [1] (setting [3]), the Ang2 result is recorded as “decreases” and the Tie2 activation entry is “increases”. Moreover, in experiment [2] (WT mice orally gavaged with GC-1 (40 μm/kg), then 72 h continuous hyperoxia (H3), FIGS. 6A-6F), the hyperoxia-induced lung injury entry is “prevents”. Also, the recovery after hyperoxia result in experiment [2] (WT mice orally gavaged with GC-1 (40 μm/kg), recovery phase 1, 2 3 and 6 days post-hyperoxia) was “accelerates”.

For `N[C@@H](Cc1cc(I)c(Oc2ccc(O)c(I)c2)c(I)c1)C(=O)O` [T3, (S)-2-amino-3-[4-(4-hydroxy-3-iodophenoxy)-3,5-diiodophenyl]propanoic acid], the “Mito anti-ROS potential, biogenesis and mitophagy” value in experiment [1] (WT and PINK1-KO mice nebulized with T3 (40 μg/kg) for 3 days prior to 72 h hyperoxia, via PINK 1, FIG. 5) was “increased”. Moreover, in experiment [1] (setting [4]), the “ER stress & apoptosis” value was “decreases” and the mitochondrial biogenesis/fusion/mitophagy result is reported as “increases”. Moreover, the hyperoxia-induced oxidants result in experiment [2] (WT mice nebulized with T3 (40 μg/kg) for 1 day or 3 days prior to 72 h continuous hyperoxia, Amplex Red, BAL fluid) is recorded as “attenuates”. In addition, the hyperoxia-induced lung injury entry in experiment [2] (WT mice nebulized with T3 (40 μg/kg) for 1 day or 3 days prior to 72 h continuous hyperoxia, FIGS. 2A-2F) is given as “attenuates”. Also, in experiment [2] (WT mice nebulized with T3 (40 μg/kg) for 1 day or 3 days prior to 72 h continuous hyperoxia, IL-1β, IL-6 in BALF), the hyperoxia-induced inflammation result is given as “attenuates”. The “mediator of T3 effects against hyperoxia-induced lung injury” value in experiment [2] (WT, PINK1−/− and Parkin−/− mice nebulized with T3 (40 μg/kg) for 3 days prior to 72 h hyperoxia, FIGS. 4A-4F) is recorded as “PINK 1, not Parkin, mediates T3 effects”.
